Measured values reported in patent publication US20210253557A1, “SUBSTITUTED TRIAZOLE DERIVATIVES AND USES THEREOF” (Bayer Pharma Aktiengesellschaft, priority 2017, published 2021).

Columns and labels:
human V1a receptor = target: T1, human V1a receptor (Homo sapiens, UniProt P37288); assay: Cellular in vitro assay for determining vasopressin receptor activity (V1a, aequorin luminescence); assay type: cell-based; details: for IC50: CHO cell line transfected with the human V1a receptor, [Arg8]-vasopressin at EC50 concentration, read-out: IC50 hV1a; for ratio IC50 hV2/hV1a: selectivity ratio of IC50 hV2 to IC50 hV1a
T1 construct: expressed in transfected cells; host or cells: CHO K1 (ATCC), also stably transfected with a modified aequorin

human V2 receptor = target: T2, human V2 receptor (Homo sapiens, UniProt P30518); assay: Cellular in vitro assay for determining vasopressin receptor activity (V2, CRE-luciferase); assay type: cell-based; details: CHO cell line transfected with the human V2 receptor; [Arg8]-vasopressin at EC50 concentration; read-out: IC50 hV2
T2 construct: expressed in transfected cells; host or cells: CHO K1 (ATCC) expressing firefly luciferase under a CRE-responsive promoter
Summary of the method: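 CHO K1 cells stably expressing the human V2 receptor and a CRE-driven firefly luciferase were plated the day before in DMEM/F12 with 2% FCS. Test compounds were added together with [Arg8]-vasopressin at its EC50 and incubated 3 h at 37 °C. Luciferase luminescence was read after Triton lysis and luciferin addition, giving IC50 values.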

T2 sequence (P30518 whole entry): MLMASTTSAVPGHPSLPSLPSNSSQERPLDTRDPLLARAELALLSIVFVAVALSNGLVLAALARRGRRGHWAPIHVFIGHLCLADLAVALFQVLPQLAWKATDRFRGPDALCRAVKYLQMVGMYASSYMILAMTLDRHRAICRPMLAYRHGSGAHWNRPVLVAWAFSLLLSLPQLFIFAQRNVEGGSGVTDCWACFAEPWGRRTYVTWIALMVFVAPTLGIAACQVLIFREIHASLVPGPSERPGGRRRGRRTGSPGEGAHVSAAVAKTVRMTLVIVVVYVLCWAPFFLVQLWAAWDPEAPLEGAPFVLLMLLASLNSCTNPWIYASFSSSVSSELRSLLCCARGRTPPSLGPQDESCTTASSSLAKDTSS
T1 sequence (P37288 whole entry): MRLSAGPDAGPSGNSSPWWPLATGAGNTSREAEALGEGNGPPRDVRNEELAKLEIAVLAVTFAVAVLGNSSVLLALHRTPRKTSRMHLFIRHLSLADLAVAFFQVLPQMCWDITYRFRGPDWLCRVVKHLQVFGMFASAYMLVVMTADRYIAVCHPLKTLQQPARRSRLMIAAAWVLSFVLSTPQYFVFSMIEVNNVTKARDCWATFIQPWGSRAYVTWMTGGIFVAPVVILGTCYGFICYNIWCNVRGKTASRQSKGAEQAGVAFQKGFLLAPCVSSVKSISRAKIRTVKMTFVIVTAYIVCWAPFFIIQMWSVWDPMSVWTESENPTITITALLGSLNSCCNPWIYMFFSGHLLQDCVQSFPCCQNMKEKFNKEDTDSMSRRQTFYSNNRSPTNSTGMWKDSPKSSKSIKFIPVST

C[C@H](OC(N)=O)c1nc(Cn2nc(-c3ccc(Cl)cc3)n(C[C@H](O)C(F)(F)F)c2=O)nn1-c1ccccc1OC(F)(F)F [Example 7, (1S)-1-{3-({3-(4-Chlorophenyl)-5-oxo-4-[(2S)-3,3,3-trifluoro-2-hydroxypropyl]-4,5-dihydro-1H-1,2,4-triazol-1-yl}methyl)-1-[2-(trifluoromethoxy)phenyl]-1H-1,2,4-triazol-5-yl}ethyl Carbamate]
IC50 (human V1a receptor): 3.6 nM
ratio IC50 hV2/hV1a (human V1a receptor): 7.4
IC50 (human V2 receptor): 26.7 nM

C[C@@H](OC(N)=O)c1nc(Cn2nc(-c3ccc(Cl)cc3)n(C[C@H](O)C(F)(F)F)c2=O)nn1-c1ccccc1OC(F)(F)F [Example 8, (1R)-1-{3-({3-(4-Chlorophenyl)-5-oxo-4-[(2S)-3,3,3-trifluoro-2-hydroxypropyl]-4,5-dihydro-1H-1,2,4-triazol-1-yl}methyl)-1-[2-(trifluoromethoxy)phenyl]-1H-1,2,4-triazol-5-yl}ethyl Carbamate]
IC50 (human V1a receptor): 0.85 nM
ratio IC50 hV2/hV1a (human V1a receptor): 190.5
IC50 (human V2 receptor): 161 nM

C[C@H](OC(N)=O)c1nc(Cn2nc(-c3ccc(Cl)cc3)n(C[C@H](O)C(F)(F)F)c2=O)nn1-c1ccccc1S(N)(=O)=O [Example 9, (1S)-1-[3-({3-(4-Chlorophenyl)-5-oxo-4-[(2S)-3,3,3-trifluoro-2-hydroxypropyl]-4,5-dihydro-1H-1,2,4-triazol-1-yl}methyl)-1-(2-sulfamoylphenyl)-1H-1,2,4-triazol-5-yl]ethyl Carbamate]
IC50 (human V1a receptor): 31.5 nM
ratio IC50 hV2/hV1a (human V1a receptor): 4.3
IC50 (human V2 receptor): 135 nM

C[C@H](OC(N)=O)c1nc(Cn2nc(-c3ccc(Cl)cc3)n(C[C@H](O)C(F)(F)F)c2=O)nn1-c1ccccn1 [Example 10, (1S)-1-[3-({3-(4-Chlorophenyl)-5-oxo-4-[(2S)-3,3,3-trifluoro-2-hydroxypropyl]-4,5-dihydro-1H-1,2,4-triazol-1-yl}methyl)-1-(pyridin-2-yl)-1H-1,2,4-triazol-5-yl]ethyl Carbamate]
IC50 (human V1a receptor): 52.5 nM
ratio IC50 hV2/hV1a (human V1a receptor): 2.0
IC50 (human V2 receptor): 105 nM

C[C@@H](OC(N)=O)c1nc(Cn2nc(-c3ccc(Cl)cc3)n(C[C@H](O)C(F)(F)F)c2=O)nn1-c1ccccn1 [Example 11, (1R)-1-[3-({3-(4-Chlorophenyl)-5-oxo-4-[(2S)-3,3,3-trifluoro-2-hydroxypropyl]-4,5-dihydro-1H-1,2,4-triazol-1-yl}methyl)-1-(pyridin-2-yl)-1H-1,2,4-triazol-5-yl]ethyl Carbamate]
IC50 (human V1a receptor): 115 nM
ratio IC50 hV2/hV1a (human V1a receptor): 2.0
IC50 (human V2 receptor): 225 nM

C[C@H](OC(N)=O)c1nc(Cn2nc(-c3ccc(Cl)cc3)n(C[C@H](O)C(F)(F)F)c2=O)nn1-c1ncccc1F [Example 12, (1S)-1-[3-({3-(4-Chlorophenyl)-5-oxo-4-[(2S)-3,3,3-trifluoro-2-hydroxypropyl]-4,5-dihydro-1H-1,2,4-triazol-1-yl}methyl)-1-(3-fluoropyridin-2-yl)-1H-1,2,4-triazol-5-yl]ethyl Carbamate]
IC50 (human V1a receptor): 35.5 nM
ratio IC50 hV2/hV1a (human V1a receptor): 3.6
IC50 (human V2 receptor): 127 nM

C[C@@H](OC(N)=O)c1nc(Cn2nc(-c3ccc(Cl)cc3)n(C[C@H](O)C(F)(F)F)c2=O)nn1-c1ncccc1F [Example 13, (1R)-1-[3-({3-(4-Chlorophenyl)-5-oxo-4-[(2S)-3,3,3-trifluoro-2-hydroxypropyl]-4,5-dihydro-1H-1,2,4-triazol-1-yl}methyl)-1-(3-fluoropyridin-2-yl)-1H-1,2,4-triazol-5-yl]ethyl Carbamate]
IC50 (human V1a receptor): 13.5 nM
ratio IC50 hV2/hV1a (human V1a receptor): 2.6
IC50 (human V2 receptor): 35 nM

C[C@H](OC(N)=O)c1nc(Cn2nc(-c3ccc(Cl)cc3)n(C[C@H](O)C(F)(F)F)c2=O)nn1-c1ncccc1Cl [Example 14, (1S)-1-[3-({3-(4-Chlorophenyl)-5-oxo-4-[(2S)-3,3,3-trifluoro-2-hydroxypropyl]-4,5-dihydro-1H-1,2,4-triazol-1-yl}methyl)-1-(3-chloropyridin-2-yl)-1H-1,2,4-triazol-5-yl]ethyl Carbamate]
IC50 (human V1a receptor): 1.75 nM
ratio IC50 hV2/hV1a (human V1a receptor): 29.7
IC50 (human V2 receptor): 52 nM

C[C@@H](OC(N)=O)c1nc(Cn2nc(-c3ccc(Cl)cc3)n(C[C@H](O)C(F)(F)F)c2=O)nn1-c1ncccc1Cl [Example 15, (1R)-1-[3-({3-(4-Chlorophenyl)-5-oxo-4-[(2S)-3,3,3-trifluoro-2-hydroxypropyl]-4,5-dihydro-1H-1,2,4-triazol-1-yl}methyl)-1-(3-chloropyridin-2-yl)-1H-1,2,4-triazol-5-yl]ethyl Carbamate]
IC50 (human V1a receptor): 1.02 nM
ratio IC50 hV2/hV1a (human V1a receptor): 34.8
IC50 (human V2 receptor): 35.5 nM

C[C@H](OC(N)=O)c1nc(Cn2nc(-c3ccc(Cl)cc3)n(C[C@H](O)C(F)(F)F)c2=O)nn1-c1ccc(Cl)cn1 [Example 16, (1S)-1-[3-({3-(4-Chlorophenyl)-5-oxo-4-[(2S)-3,3,3-trifluoro-2-hydroxypropyl]-4,5-dihydro-1H-1,2,4-triazol-1-yl}methyl)-1-(5-chloropyridin-2-yl)-1H-1,2,4-triazol-5-yl]ethyl Carbamate]
IC50 (human V1a receptor): 160 nM
ratio IC50 hV2/hV1a (human V1a receptor): 0.3
IC50 (human V2 receptor): 52.5 nM

C[C@@H](OC(N)=O)c1nc(Cn2nc(-c3ccc(Cl)cc3)n(C[C@H](O)C(F)(F)F)c2=O)nn1-c1ccc(Cl)cn1 [Example 17, (1R)-1-[3-({3-(4-Chlorophenyl)-5-oxo-4-[(2S)-3,3,3-trifluoro-2-hydroxypropyl]-4,5-dihydro-1H-1,2,4-triazol-1-yl}methyl)-1-(5-chloropyridin-2-yl)-1H-1,2,4-triazol-5-yl]ethyl Carbamate]
IC50 (human V1a receptor): 557 nM
ratio IC50 hV2/hV1a (human V1a receptor): 0.3
IC50 (human V2 receptor): 150 nM

C[C@H](OC(N)=O)c1nc(Cn2nc(-c3ccc(Cl)cc3)n(C[C@H](O)C(F)(F)F)c2=O)nn1-c1ccncc1Cl [Example 18, (1S)-1-[3-({3-(4-Chlorophenyl)-5-oxo-4-[(2S)-3,3,3-trifluoro-2-hydroxypropyl]-4,5-dihydro-1H-1,2,4-triazol-1-yl}methyl)-1-(3-chloropyridin-4-yl)-1H-1,2,4-triazol-5-yl]ethyl Carbamate]
IC50 (human V1a receptor): 7.7 nM
ratio IC50 hV2/hV1a (human V1a receptor): 3.9
IC50 (human V2 receptor): 30 nM

C[C@H](OC(N)=O)c1nc(Cn2nc(-c3ccc(Cl)cc3)n(C[C@H](O)C(F)(F)F)c2=O)nn1-c1c(Cl)cncc1Cl [Example 19, (1S)-1-[3-({3-(4-Chlorophenyl)-5-oxo-4-[(2S)-3,3,3-trifluoro-2-hydroxypropyl]-4,5-dihydro-1H-1,2,4-triazol-1-yl}methyl)-1-(3,5-dichloropyridin-4-yl)-1H-1,2,4-triazol-5-yl]ethyl Carbamate]
IC50 (human V1a receptor): 1.55 nM
ratio IC50 hV2/hV1a (human V1a receptor): 40.7
IC50 (human V2 receptor): 63 nM

C[C@@H](OC(N)=O)c1nc(Cn2nc(-c3ccc(Cl)cc3)n(C[C@H](O)C(F)(F)F)c2=O)nn1-c1c(Cl)cncc1Cl [Example 20, (1R)-1-[3-({3-(4-Chlorophenyl)-5-oxo-4-[(2S)-3,3,3-trifluoro-2-hydroxypropyl]-4,5-dihydro-1H-1,2,4-triazol-1-yl}methyl)-1-(3,5-dichloropyridin-4-yl)-1H-1,2,4-triazol-5-yl]ethyl Carbamate]
IC50 (human V1a receptor): 3.3 nM
ratio IC50 hV2/hV1a (human V1a receptor): 15.8
IC50 (human V2 receptor): 52 nM

C[C@H](OC(N)=O)c1nc(Cn2nc(-c3ccc(Cl)cc3)n(C[C@H](O)C(F)(F)F)c2=O)nn1-c1cnccc1Cl [Example 21, (1S)-1-[3-({3-(4-Chlorophenyl)-5-oxo-4-[(2S)-3,3,3-trifluoro-2-hydroxypropyl]-4,5-dihydro-1H-1,2,4-triazol-1-yl}methyl)-1-(4-chloropyridin-3-yl)-1H-1,2,4-triazol-5-yl]ethyl Carbamate]
IC50 (human V1a receptor): 1.9 nM
ratio IC50 hV2/hV1a (human V1a receptor): 9.2
IC50 (human V2 receptor): 17.5 nM

C[C@H](OC(N)=O)c1nc(Cn2nc(-c3ccc(Cl)cc3)n(C[C@H](O)C(F)(F)F)c2=O)nn1-c1ncccc1OC(F)(F)F [Example 22, (1S)-1-{3-({3-(4-Chlorophenyl)-5-oxo-4-[(2S)-3,3,3-trifluoro-2-hydroxypropyl]-4,5-dihydro-1H-1,2,4-triazol-1-yl}methyl)-1-[3-(trifluoromethoxy)pyridin-2-yl]-1H-1,2,4-triazol-5-yl}ethyl Carbamate]
IC50 (human V1a receptor): 9.95 nM
ratio IC50 hV2/hV1a (human V1a receptor): 14.4
IC50 (human V2 receptor): 144 nM

C[C@@H](OC(N)=O)c1nc(Cn2nc(-c3ccc(Cl)cc3)n(C[C@H](O)C(F)(F)F)c2=O)nn1-c1ncccc1OC(F)(F)F [Example 23, (1R)-1-{3-({3-(4-Chlorophenyl)-5-oxo-4-[(2S)-3,3,3-trifluoro-2-hydroxypropyl]-4,5-dihydro-1H-1,2,4-triazol-1-yl}methyl)-1-[3-(trifluoromethoxy)pyridin-2-yl]-1H-1,2,4-triazol-5-yl}ethyl Carbamate]
IC50 (human V1a receptor): 5.4 nM
ratio IC50 hV2/hV1a (human V1a receptor): 52.8
IC50 (human V2 receptor): 285 nM

NC(=O)OCc1nc(Cn2nc(-c3ccc(Cl)cc3)n(C[C@H](O)C(F)(F)F)c2=O)nn1-c1cccc(Cl)c1 [Example 24, [1-(3-Chlorophenyl)-3-({3-(4-chlorophenyl)-5-oxo-4-[(2S)-3,3,3-trifluoro-2-hydroxypropyl]-4,5-dihydro-1H-1,2,4-triazol-1-yl}methyl)-1H-1,2,4-triazol-5-yl]methyl Carbamate]
IC50 (human V1a receptor): 25.9 nM
ratio IC50 hV2/hV1a (human V1a receptor): 0.2
IC50 (human V2 receptor): 5.29 nM

NC(=O)OCc1nc(Cn2nc(-c3ccc(Cl)cc3)n(C[C@H](OC(N)=O)C(F)(F)F)c2=O)nn1-c1cccc(Cl)c1 [Example 25, (2S)-3-[1-({5-[(Carbamoyloxy)methyl]-1-(3-chlorophenyl)-1H-1,2,4-triazol-3-yl}methyl)-3-(4-chlorophenyl)-5-oxo-1,5-dihydro-4H-1,2,4-triazol-4-yl]-1,1,1-trifluoropropan-2-yl Carbamate]
IC50 (human V1a receptor): 26.6 nM
ratio IC50 hV2/hV1a (human V1a receptor): 0.1
IC50 (human V2 receptor): 2.26 nM
